US20070072209A1, “Methods of treatment and diagnosis of Kaposi's sarcoma (KS) and KS related diseases” (priority 2005, published 2007)

Assays:
Format in all cases: cell-based, human
KSHV-infected DMVEC [1] = experiment: XTT assay of PMO-AS effect on post-confluent growth (Example 5); conditions: 72 hours
Description: XTTAssay. Metabolism of XTT to a water-soluble formazan dye by viable cells gives a quantitative determination of relative cell number. The XTT assay was thus used to quantitatively assess the effect of PMO-AS treatment on KSHV focus formation and post-confluent growth. For these assays, KSHV-infected and uninfected DMVEC were seeded into 96-well flat-bottom Primaria trays at 10^4 cells/well, loaded with PMO-AS after overnight equilibration, and cultured for 72 hrs. For the final 4 hours of culture, 50 μl XTT (Roche Diagnostics, Indianapolis, Ind.) was added to each well and the optical density (OD) of each well was recorded by an ELISA reader between 450 and 500 nm. To verify efficient (>80%) PMO-AS uptake in the 96-well format, cells were treated with a FITC-tagged morpholino (FITC-PMO) and uptake visually assessed under a fluorescence microscope. This FITC-PMO also served as a control for any non-specific effect of the PMO-AS:EPEI complex on DMVEC growth. As a positive control, cells were treated with a c-Kit PMO-AS previously shown to inhibit KSHV-induced transformation (Moses, 2002). For NIH 3T3 cells, the XTT assay was performed in 96-well plates at a cell density of 10^4 cells/well, and OD measured at 48 hours.
In view of the above-described effects of Neuritin- and RDC1-specific PMO-AS in inhibiting focus formation of KSHV-infected DMVEC, a further determination was made to determine whether such inhibition correlated with reduced cellular proliferation. Such reduced cellular proliferation would be expected, because the development of multilayered cell foci requires additional cell growth that would not occur if contact inhibition was maintained. A colorimetric cellular proliferation assay was used to assess cell growth. […] This growth can be accurately assessed by monitoring the metabolism of XTT added to each well by measurement of optical density at […] (e.g., 4 hours post XTT addition). […] To verify efficient (>80%) PMO-AS uptake in the 96-well format, cells were treated with a FITC-tagged PMO-AS (FITC-PMO) and uptake visually assessed under a fluorescence microscope. […]

KSHV-infected DMVEC [2] = experiment: XTT proliferation assay of PMO-loaded KSHV-infected DMVEC (Example 3); conditions: PMO antisense silencing
Description: Proliferation assays, and loading of cells with PMOs. Proliferation of KSHV-infected DMVEC was quantified using an XTT (2,3-bis-(2-methoxy-4-nitro-5-sulfophenyl)-2H-tetrazolium-5-carboxanilide, disodium salt)-based assay. KSHV-infected cells were added to Primaria 96-well trays (Becton Dickinson) at 1×10^4 or 5×10^4 cells/well. XTT (Roche, Molecular Biochemicals, Indianapolis, Ind.) was added 48 hours later according to the manufacturer's instructions. Absorbance was read after 4 to 6 hours on a microplate reader.
Briefly, cells were plated in 96-well trays at a density approaching confluence (5×10^4 cells per well) in 100 μl of complete medium. PMOs were loaded the following day in a total of 100 μl (0.5 μl PMO, 0.5 μl EPEI, 49 μl H2O and 50 μl serum free medium) with reagent mixing as described by the manufacturer (GeneTools). Controls included a FITC PMO control oligonucleotide, EPEI only or H2O only. Each variable was performed in quadruplicate. Fresh complete medium was replaced 4 hours after loading. Cells were cultured for 4 days to allow for multi-layered cell growth post-confluence in the absence of any growth inhibition. XTT was added on day 4 of culture and the absorbance read 4 hrs later on a microplate reader. Cell proliferation (growth) values are given as percentage inhibition values, relative to cells without PMO, which are adjusted to 100%.

DMVEC = experiment: Uptake, distribution and persistence of FITC-labeled PMO antisense; conditions: 3 hours after loading, FITC-labeled PMO with EPEI
Source text: Introduction of antisense PMO into KSHV-infected DMVEC. Antisense PMO molecules, for delivery purposes, are typically converted to a paired duplex together with a partially complementary cDNA oligonucleotide in the weakly basic delivery reagent ethoxylated polyethylenimine (EPEI) (Summerton, supra). The anionic complex binds to the cell surface, is taken up by endocytosis and eventually released into the cytosol. A protocol for optimum uptake of antisense PMO in immortalized DMVEC was developed using a modification of the EPEI method. Briefly, uninfected, immortalized DMVECs were incubated for 3 hours at 37° C. with 0.6 nmol/well FITC-PMO complexed with EPEI according to the manufacturer's instructions (GeneTools, LLC, One Summerton Way, Philomath, Oreg. 97370) (e.g., 1.25 nMol oligomer with 2.5 μl EPEI reagent per 35 mm dish, allowing for sufficient antisense uptake without non-specific EPEI-induced toxicity). The PMOs were labeled with FITC to allow for monitoring of loading efficiency by fluorescence microscopy.
Cellular distribution of introduced FITC-labeled PMO antisense molecules. […]
Therefore, the introduced PMO antisense oligomers were determined to be stable over substantial time periods in DMVEC. […] Moreover, the PMO oligomers were readily taken up by DMVEC and distributed within the cytosol.

Substance	effect on cell growth in XTT assay (in words) (KSHV-infected DMVEC [1])	inhibition of KSHV-induced cellular proliferation (in words) (KSHV-infected DMVEC [2])	cells with FITC-PMO concentrated in intracellular vesicles (endosomes) (DMVEC)
RDC-1: PMO antisense to RDC-1, GAAGAGATGCAGATCCATCGTTCTG (SEQ ID NO:15) (all phosphorodiamidate morpholino (PMO); delivered paired with partially complementary DNA oligo (Special Delivery))	dramatically inhibited cell growth	substantial inhibition	–
KIT: FITC-labeled PMO targeting the start codon of c-Kit, CGCCTCTCATCGCGGTAGCTGCG (SEQ ID NO:21) (all phosphorodiamidate morpholino (PMO); FITC label attached, position not given here)	dramatically inhibited cell growth	substantial inhibition	about 70%
Neuritin: PMO antisense to Neuritin, TTAACTCCCATCCTACGTTTAGTCA (SEQ ID NO:19) (all phosphorodiamidate morpholino (PMO); delivered paired with partially complementary DNA oligo (Special Delivery))	dramatically inhibited cell growth	substantial inhibition	–
